US11542492B2 (Celgene CAR LLC, priority 2009, dated 2023)

What was measured:
recombinant human cIAP-1 = molecular target: T1, recombinant human cIAP-1 (Homo sapiens, UniProt Q13490); assay: Fluorescence polarization competition binding assay, cIAP-1; conditions: c-IAP-1, 3 h
T1 construct: purchased R&D Systems 818-IA
Procedure: (§1) Homogeneous, Fluorescence Polarization, Competition Binding Assay Protocol for Affinity Assessment of Compound Binding to XIAP, cIAP-1 and ML-IAPβ BIR3 Domains
(§2) 1× stocks of recombinant human XIAP; BIR3 domain (895-XB), recombinant human cIAP-1 (818-IA) or recombinant human ML-IAPβ (818-IA) from R&D Systems and Fluorescence Polarization (FP) assay tracer (Atto-647 tagged IAP inhibitor probe compound) were prepared in assay buffer consisting of 25 mM Tris-HCL, pH 7.5 (Sigma), 10 mM […] (Sigma), 1 mM DTT (Fluka) and 0.005% TritonX-100 (Pierce). While IAP protein and tracer equilibrated at ambient temp in the dark (30-60 min), 100× stocks of test compound were prepared in 50% DMSO:H2O, serially diluted and spotted (0.5 µL/well) in duplicate wells of a 384-well, flat bottom, polypropylene, black assay plate (Greiner #781209). […] Competition binding between test compounds and assay tracer was initiated by the addition of 50 µL/well of pre-equilibrated IAP protein and assay tracer. Displacement of the assay tracer was measured in a Synergy plate reader from BioTek (Winooski, Vt.) at λex620/λem680 through a 660 nm half-sized dicroich mirror and S/P polarizing filters every 30 min for 3 hr. (See Huang, X., Journal of Biomolecular Screening 8, 2003). The resulting compound dose response data were fit to a one-site binding Ki model in GraphPad Prism from GraphPad Software (San Diego, Calif.).

[1] = molecular target: T2, recombinant human ML-IAPβ (Homo sapiens, UniProt Q96CA5); assay: Fluorescence polarization competition binding assay, ML-IAPβ; conditions: ML-IAP, 2 h
T2 construct: purchased R&D Systems 818-IA
T2 sequence (Q96CA5 1-280 isoform Q96CA5-2): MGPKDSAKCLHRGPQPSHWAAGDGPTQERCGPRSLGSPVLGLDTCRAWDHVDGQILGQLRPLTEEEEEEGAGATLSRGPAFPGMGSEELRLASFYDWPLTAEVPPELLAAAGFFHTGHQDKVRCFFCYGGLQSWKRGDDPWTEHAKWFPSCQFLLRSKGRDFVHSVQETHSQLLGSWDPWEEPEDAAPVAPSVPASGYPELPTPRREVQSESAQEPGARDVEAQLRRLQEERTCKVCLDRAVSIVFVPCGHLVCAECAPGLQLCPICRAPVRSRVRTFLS
Procedure: as §1, §2

PDPK1 [2] = molecular target: T3, PDPK1 (Homo sapiens, UniProt O15530); assay: PDK1-OMNIA kinase assay (ST28-Sox peptide); type: biochemical; parameters: purchased Invitrogen, BPS or SignalChem P3001 (Invitrogen), 40080 (BPS), P14-10H (SignalChem); conditions: PDPK1 enzyme pre-incubated 30 min at 25° C. with compound; [ATP]=5 μM; ST28-Sox peptide substrate; read-out: Inhibition/Modification Designation (IC50, PDK1-OMNIA)
T3 sequence (O15530 1-556): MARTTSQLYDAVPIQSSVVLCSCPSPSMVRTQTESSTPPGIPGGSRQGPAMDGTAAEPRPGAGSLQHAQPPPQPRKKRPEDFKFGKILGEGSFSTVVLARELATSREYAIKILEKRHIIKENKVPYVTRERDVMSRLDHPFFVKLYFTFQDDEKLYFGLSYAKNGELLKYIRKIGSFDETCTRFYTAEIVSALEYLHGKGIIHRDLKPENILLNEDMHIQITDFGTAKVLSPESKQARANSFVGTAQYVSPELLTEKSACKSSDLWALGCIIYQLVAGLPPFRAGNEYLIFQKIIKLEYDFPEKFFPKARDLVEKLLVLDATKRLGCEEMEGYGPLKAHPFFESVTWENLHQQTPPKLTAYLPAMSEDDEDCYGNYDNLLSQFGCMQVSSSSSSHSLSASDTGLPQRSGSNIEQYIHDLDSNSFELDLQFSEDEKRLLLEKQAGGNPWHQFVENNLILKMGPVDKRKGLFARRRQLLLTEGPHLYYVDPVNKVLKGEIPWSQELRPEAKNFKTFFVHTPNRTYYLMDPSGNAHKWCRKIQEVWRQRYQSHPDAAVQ
Procedure: Briefly, a 10× stock of PDPK1 enzyme from Invitrogen (P3001) or BPS (40080) or SignalChem (P14-10H), 1.13×ATP (AS001A) and ST28-Sox peptide substrate (KNZ1281C) were prepared in 1× kinase reaction buffer consisting of 20 mM Tris, pH 7.5, 5 mM MgCl2, 1 mM EGTA, 5 mM β-glycerophosphate, 5% glycerol (10× stock, KB002A) and 0.2 mM DTT (DS001A). 5 μL of enzyme were pre-incubated in a Corning (#3574) 384-well, white, non-binding surface microtiter plate (Corning, N.Y.) for 30 min at 25° C. with a 0.5 μL volume of 50% DMSO and serially diluted compounds prepared in 50% DMSO. Kinase reactions were started with the addition of 45 […] of the ST28-Sox peptide substrate and monitored every 71 seconds for 30-60 minutes at λex360/λem485 in a Synergy4 plate reader from BioTek (Winooski, Vt.). At the conclusion of each assay, progress curves from each well were examined for linear reaction kinetics and fit statistics (R^2, 95% confidence interval, absolute sum of squares). Post-lag velocity (+10 minutes to 20+ minutes) from each reaction was estimated from the slope of a plot of relative fluorescence units vs time (minutes) and normalized to the no enzyme and no inhibitor control groups for % Inhibition. The resulting inhibition values were then plotted against inhibitor concentration to estimate IC50 from log [Inhibitor] vs Response, Variable Slope model in GraphPad Prism from GraphPad Software (San Diego, Calif.).
[Reagent] used in provisional protocol(s): Invitrogen—[PDPK1]=5-10 nM, [ATP]=5 μM and [ST28-Sox]=5 μM or 10 μM (ATP KMapp=4-6 μM); BPS—[PDPK1]=10-15 nM, [ATP]=5 μM and [ST28-Sox]=10 μM (ATP KMapp=3-5 μM); SignalChem—[PDPK1]=5-10 nM, [ATP]=5 μM and [ST28-Sox]=5 μM or 10 μM (ATP KMapp ND)

PDPK1 [3] = molecular target: T3, PDPK1; assay: MALDI MS of intact PDPK1 incubated with compound; type: binding; parameters: purchased Millipore 14-452; conditions: for Number of Modifications on Whole Protein: PDPK1 whole protein, MS
Procedure: (§3) Intact PDPK1 was incubated for 3 hr at a 10-fold excess of compound XI-27 to protein. 3 μL aliquots of the samples were diluted with 10 μL of 0.1% TFA prior to micro C4 Ziptipping directly onto the MALDI target plate using sinapinic acid as the desorption matrix (10 mg/mL in 0.1% TFA:Acetonitrile 50:50).
as §3, with “XI-21” for “XI-27”
For example, Table 7 lists non-limiting examples of compounds that modify PDPK1 whole protein, the number of modifications per protein and the lysines modified within the protein. […] Also, the lysine modified in PDPK-1 by XI-27, XI-26, XI-22, and XI-21 are not the same for each compound. Without wishing to be bound to any particular theory, the position of the warhead, as presented by the scaffold and tether to the lysines in the binding site, effects different results on the modification of the different lysines in the binding site of PDPK-1.

T1 sequence (Q13490 whole entry): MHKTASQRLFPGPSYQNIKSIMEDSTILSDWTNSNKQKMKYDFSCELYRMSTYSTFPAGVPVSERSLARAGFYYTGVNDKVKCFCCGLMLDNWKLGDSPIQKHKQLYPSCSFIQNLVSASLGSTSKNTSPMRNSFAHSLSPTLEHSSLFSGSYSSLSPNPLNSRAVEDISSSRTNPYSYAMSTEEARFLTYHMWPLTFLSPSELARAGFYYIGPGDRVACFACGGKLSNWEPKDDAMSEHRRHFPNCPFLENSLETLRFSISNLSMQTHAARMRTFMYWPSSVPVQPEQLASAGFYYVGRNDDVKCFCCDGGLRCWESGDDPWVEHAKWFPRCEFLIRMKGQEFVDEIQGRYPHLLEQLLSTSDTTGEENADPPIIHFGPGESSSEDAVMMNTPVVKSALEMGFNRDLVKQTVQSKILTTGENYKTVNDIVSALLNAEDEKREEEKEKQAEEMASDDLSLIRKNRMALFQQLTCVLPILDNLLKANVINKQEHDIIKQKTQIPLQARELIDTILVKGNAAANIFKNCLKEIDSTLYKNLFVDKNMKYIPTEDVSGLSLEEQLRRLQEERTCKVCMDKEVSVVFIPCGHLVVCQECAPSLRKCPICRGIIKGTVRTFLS

Row | SMILES | Ki (recombinant human cIAP-1) | Ki [1] | IC50 (PDPK1 [2]) | Number of Modifications on Whole Protein (PDPK1 [3]) | other results
1 | [2H]C([2H])=C([2H])C(=O)Nc1cccc(CNC(=O)[C@@H]2CC[C@@H]3CCCC[C@H](NC(=O)[C@H](C)NC)C(=O)N32)c1 [VII-16] | 100 to 1000 nM | 100 to 1000 nM |  |  | 
2 | C=CS(=O)(=O)Nc1cccc(CNC(=O)[C@@H]2CC[C@@H]3CCCC[C@H](NC(=O)[C@H](C)NC)C(=O)N32)c1 [VII-23] | < 10 nM | 10 to 100 nM |  |  | 
3 | CN[C@@H](C)C(=O)N[C@H]1CCCC[C@H]2CC[C@@H](C(=O)NCc3cccc(COC(=O)CC(C)=O)c3)N2C1=O [VII-29] | 1000 to 10000 nM | 10 to 100 nM |  |  | 
4 | CN[C@@H](C)C(=O)N[C@H]1CCCC[C@H]2CC[C@@H](C(=O)N[C@@H]3CCCc4c(NC(=O)C5CCC(=O)O5)cccc43)N2C1=O (stereo partly shown) [VII-30] | 10 to 100 nM | 10 to 100 nM |  |  | 
5 | CN[C@@H](C)C(=O)N[C@H]1CCCC[C@H]2CC[C@@H](C(=O)NCc3cccc(C(=O)N4CC5CCC4C(=O)O5)c3)N2C1=O (stereo partly shown) [VII-43] | 1000 to 10000 nM | > 10000 nM |  |  | 
6 | CC(C)(C(N)=O)C(=O)NCCCNc1nc(Nc2cccc(NC(=O)C3CCC(=O)S3)c2)ncc1Br (stereo not shown) [XI-21] |  |  | < 10 nM | 2 | mass shift of PDPK1 as percent (PDPK1 [3]; 3 hr, 10-fold excess): 175%; modification of PDPK1 (PDPK1 [3]; 3 hr, 10-fold excess): complete multiple modification; mass shift of PDPK1 (PDPK1 [3]; 3 hr, 10-fold excess of compound to protein): 1,009 Da
7 | CC(C)(C(N)=O)C(=O)NCCCNc1nc(Nc2cccc(NC(=O)CNC(=O)C3CCC(=O)S3)c2)ncc1Br (stereo not shown) [XI-22] |  |  | < 10 nM | 2 | 
8 | CC(C)(C(N)=O)C(=O)NCCCNc1nc(Nc2cccc(NC(=O)CNC(=O)C3CSC(=O)C3)c2)ncc1Br (stereo not shown) [XI-26] |  |  | 10 to 100 nM | 1 | 
